Results: ChEMBL document CHEMBL5291721, “A preclinical secondary pharmacology resource illuminates target-adverse drug reaction associations of marketed drugs” (Nat Commun, 2023)
*1 amine or outer side, *2 acyl side, *3 side chain or, on linkers, in order; H or OH if unused. Where a SMILES comes first, the peptide text is derived from it. Bridges are numbered along the chain shown (N, C = ends). [ ]: non-standard residue; d: D form. The star is where a group is joined. hTyr(3S-OH,4S-OH,3'-OSO3H) = N[C@H](C(=O)O)[C@H](O)[C@@H](O)c1ccc(O)c(OS(=O)(=O)O)c1; Orn(4R-OH,5R-OH) = O=C([C@H](C[C@@H](O)[C@@H](O)N[*:3])N[*:1])[*:2]; Pro(3S-OH,4S-Me) = C[C@H]1CN[C@H](C(=O)O)[C@H]1O; X1 = CCCCCOc1ccc(-c2cc(-c3ccc(C(=O)*)cc3)no2)cc1; Gln(3R-OH) = NC(=O)C[C@@H](O)[C@H](N)C(=O)O; Hyp = O=C(O)[C@@H]1C[C@@H](O)CN1

Tests used:
[1] = target: T1, Muscarinic acetylcholine receptor M2 (Homo sapiens, UniProt P08172)
T1 sequence (P08172 whole entry): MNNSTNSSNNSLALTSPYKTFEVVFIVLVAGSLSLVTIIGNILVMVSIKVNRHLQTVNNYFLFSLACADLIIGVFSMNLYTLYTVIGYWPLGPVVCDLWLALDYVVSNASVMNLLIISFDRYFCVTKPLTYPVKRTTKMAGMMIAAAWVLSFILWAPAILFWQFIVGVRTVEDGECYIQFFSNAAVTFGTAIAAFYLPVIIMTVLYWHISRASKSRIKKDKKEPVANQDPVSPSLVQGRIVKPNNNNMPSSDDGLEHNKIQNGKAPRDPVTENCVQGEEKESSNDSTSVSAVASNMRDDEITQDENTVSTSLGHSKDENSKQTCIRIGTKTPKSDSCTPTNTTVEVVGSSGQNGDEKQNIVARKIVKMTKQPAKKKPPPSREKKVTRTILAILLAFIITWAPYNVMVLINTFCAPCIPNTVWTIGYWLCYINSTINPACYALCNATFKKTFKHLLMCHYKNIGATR

Estrogen receptor = target: T2, Estrogen receptor (Homo sapiens, UniProt P03372)
T2 sequence (P03372 whole entry): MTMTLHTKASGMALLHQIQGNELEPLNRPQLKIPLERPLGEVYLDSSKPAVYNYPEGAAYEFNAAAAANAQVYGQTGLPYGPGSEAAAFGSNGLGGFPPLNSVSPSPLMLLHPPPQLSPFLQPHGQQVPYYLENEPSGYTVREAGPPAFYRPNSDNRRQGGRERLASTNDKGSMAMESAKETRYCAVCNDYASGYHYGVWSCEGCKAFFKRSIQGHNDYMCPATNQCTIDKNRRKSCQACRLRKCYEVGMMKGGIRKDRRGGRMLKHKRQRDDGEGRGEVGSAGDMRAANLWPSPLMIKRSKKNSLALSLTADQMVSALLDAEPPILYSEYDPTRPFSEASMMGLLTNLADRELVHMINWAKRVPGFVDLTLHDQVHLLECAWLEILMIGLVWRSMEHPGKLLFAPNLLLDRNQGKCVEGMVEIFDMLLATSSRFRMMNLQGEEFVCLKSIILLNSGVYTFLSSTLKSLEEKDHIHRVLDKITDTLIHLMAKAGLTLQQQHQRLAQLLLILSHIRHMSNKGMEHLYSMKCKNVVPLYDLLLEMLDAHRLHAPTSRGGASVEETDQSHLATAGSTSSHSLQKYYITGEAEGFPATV

Histamine H3 receptor = Histamine H3 receptor (Homo sapiens, UniProt Q9Y5N1)
Sequence of Histamine H3 receptor (Q9Y5N1 whole entry): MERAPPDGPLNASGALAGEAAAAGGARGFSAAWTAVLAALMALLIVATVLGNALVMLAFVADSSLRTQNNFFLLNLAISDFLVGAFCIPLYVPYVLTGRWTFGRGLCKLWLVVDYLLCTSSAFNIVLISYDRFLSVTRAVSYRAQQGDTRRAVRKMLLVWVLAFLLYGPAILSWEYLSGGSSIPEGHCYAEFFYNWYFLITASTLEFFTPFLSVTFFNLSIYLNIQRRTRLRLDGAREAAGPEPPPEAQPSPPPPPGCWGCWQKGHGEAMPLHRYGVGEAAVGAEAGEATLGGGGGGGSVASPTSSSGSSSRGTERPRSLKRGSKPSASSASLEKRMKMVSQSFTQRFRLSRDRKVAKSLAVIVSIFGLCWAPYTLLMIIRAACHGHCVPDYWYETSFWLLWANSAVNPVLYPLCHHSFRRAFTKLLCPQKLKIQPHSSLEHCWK

Adenosine receptor A2a = Adenosine receptor A2a (Homo sapiens, UniProt P29274)
Sequence of Adenosine receptor A2a (P29274 whole entry): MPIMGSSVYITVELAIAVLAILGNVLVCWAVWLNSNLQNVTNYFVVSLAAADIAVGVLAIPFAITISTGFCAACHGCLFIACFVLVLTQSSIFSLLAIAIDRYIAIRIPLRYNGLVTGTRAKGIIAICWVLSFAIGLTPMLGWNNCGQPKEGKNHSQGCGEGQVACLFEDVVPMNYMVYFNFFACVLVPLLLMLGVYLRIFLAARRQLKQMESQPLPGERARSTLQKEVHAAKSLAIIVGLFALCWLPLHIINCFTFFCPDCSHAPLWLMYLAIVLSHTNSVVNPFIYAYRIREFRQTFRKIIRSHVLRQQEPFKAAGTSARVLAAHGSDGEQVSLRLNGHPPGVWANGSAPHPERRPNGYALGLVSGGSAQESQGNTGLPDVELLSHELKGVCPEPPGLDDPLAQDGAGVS

Vasopressin V1a receptor = Vasopressin V1a receptor (Homo sapiens, UniProt P37288)
Sequence of Vasopressin V1a receptor (P37288 whole entry): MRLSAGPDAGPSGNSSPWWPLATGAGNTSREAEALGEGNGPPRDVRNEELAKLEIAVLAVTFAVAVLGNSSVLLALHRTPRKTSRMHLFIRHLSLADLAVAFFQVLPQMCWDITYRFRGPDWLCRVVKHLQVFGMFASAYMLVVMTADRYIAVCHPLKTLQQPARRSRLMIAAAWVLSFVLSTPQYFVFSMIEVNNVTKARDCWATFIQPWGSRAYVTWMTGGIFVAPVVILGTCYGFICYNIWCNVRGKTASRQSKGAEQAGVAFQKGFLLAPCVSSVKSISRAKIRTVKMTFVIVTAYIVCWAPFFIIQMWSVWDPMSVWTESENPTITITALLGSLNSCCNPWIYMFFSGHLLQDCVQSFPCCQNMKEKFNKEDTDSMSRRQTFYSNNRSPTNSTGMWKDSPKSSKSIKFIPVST

[2] = target: Gamma-aminobutyric acid receptor subunit alpha-1 (Rattus norvegicus, UniProt P62813)
Sequence of Gamma-aminobutyric acid receptor subunit alpha-1 (P62813 whole entry): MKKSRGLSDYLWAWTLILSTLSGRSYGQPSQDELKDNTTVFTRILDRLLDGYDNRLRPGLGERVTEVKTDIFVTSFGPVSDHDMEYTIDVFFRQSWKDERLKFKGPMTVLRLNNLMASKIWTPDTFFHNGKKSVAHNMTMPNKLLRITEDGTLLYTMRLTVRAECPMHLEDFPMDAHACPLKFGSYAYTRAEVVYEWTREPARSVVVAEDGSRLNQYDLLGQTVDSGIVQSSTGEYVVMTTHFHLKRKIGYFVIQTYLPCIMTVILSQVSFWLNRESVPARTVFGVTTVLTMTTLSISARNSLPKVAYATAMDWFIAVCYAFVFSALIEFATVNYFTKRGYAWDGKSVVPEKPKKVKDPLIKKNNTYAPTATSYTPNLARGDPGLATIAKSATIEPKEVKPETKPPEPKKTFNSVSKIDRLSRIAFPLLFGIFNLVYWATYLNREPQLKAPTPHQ

[3] = target: Voltage-gated inwardly rectifying potassium channel KCNH2 (Homo sapiens, UniProt Q12809); format: functional; conditions: read-out: AC50
Sequence of Voltage-gated inwardly rectifying potassium channel KCNH2 (Q12809 whole entry): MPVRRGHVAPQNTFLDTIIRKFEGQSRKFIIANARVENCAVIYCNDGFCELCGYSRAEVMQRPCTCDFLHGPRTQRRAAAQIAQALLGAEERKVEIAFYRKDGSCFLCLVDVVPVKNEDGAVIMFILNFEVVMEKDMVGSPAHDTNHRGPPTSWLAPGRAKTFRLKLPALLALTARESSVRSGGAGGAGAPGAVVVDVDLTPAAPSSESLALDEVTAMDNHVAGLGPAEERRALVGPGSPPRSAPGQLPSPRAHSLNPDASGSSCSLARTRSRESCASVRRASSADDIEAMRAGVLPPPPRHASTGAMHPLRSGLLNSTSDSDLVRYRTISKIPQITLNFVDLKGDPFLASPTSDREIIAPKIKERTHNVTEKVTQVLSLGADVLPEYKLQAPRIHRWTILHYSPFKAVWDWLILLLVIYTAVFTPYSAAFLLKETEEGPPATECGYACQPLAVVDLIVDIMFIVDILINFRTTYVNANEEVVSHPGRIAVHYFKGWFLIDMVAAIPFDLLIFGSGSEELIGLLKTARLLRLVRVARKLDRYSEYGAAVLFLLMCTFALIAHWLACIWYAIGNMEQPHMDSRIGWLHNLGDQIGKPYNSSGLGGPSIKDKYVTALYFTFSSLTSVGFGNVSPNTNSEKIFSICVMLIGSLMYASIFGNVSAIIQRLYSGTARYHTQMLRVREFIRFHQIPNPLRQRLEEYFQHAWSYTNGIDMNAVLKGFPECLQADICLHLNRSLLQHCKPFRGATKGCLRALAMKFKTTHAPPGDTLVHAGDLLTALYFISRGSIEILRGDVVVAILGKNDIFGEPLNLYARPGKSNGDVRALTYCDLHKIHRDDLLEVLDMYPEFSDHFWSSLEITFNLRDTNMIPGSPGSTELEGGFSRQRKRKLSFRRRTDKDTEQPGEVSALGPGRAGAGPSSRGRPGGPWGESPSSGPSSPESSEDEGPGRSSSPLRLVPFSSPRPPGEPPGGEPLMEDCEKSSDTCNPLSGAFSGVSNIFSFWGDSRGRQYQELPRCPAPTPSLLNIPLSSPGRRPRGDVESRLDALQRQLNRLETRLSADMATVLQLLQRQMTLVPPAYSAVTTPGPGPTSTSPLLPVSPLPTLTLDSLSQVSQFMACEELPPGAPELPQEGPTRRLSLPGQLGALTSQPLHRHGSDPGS

[4] = target: T3, Neuropeptide Y receptor type 1 (Homo sapiens, UniProt P25929)
T3 sequence (P25929 whole entry): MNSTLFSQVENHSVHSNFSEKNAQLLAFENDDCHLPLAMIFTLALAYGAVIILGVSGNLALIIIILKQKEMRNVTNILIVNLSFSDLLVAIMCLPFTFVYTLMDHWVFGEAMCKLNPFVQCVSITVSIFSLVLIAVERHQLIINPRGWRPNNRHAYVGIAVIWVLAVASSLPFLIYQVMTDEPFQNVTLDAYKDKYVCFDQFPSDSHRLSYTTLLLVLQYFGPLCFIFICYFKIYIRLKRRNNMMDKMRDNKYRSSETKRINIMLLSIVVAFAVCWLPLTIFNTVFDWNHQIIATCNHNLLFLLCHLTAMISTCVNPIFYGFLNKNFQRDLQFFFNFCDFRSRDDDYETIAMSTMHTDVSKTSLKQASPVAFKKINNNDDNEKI

[5] = target: T4, Prostaglandin G/H synthase 1 (Rattus norvegicus, UniProt Q63921); format: functional
T4 sequence (Q63921 whole entry): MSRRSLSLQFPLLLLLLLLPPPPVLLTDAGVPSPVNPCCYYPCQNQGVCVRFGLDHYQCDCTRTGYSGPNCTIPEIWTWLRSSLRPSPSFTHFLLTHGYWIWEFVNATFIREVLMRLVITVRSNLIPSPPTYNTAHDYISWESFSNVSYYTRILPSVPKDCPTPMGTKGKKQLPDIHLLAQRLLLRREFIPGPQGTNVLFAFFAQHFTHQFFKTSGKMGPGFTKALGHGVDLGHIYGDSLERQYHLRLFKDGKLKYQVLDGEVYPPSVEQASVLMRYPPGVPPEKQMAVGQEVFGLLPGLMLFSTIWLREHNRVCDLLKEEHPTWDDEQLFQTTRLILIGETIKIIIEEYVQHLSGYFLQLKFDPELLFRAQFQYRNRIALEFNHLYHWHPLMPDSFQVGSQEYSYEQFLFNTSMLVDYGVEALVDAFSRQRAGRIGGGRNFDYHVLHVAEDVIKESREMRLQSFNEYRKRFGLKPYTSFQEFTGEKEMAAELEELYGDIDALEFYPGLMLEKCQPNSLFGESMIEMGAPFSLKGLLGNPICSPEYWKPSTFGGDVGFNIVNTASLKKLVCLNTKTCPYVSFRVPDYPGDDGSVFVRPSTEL

[6] = target: T5, Alpha-2C adrenergic receptor (Homo sapiens, UniProt P18825); format: functional
T5 sequence (P18825 whole entry): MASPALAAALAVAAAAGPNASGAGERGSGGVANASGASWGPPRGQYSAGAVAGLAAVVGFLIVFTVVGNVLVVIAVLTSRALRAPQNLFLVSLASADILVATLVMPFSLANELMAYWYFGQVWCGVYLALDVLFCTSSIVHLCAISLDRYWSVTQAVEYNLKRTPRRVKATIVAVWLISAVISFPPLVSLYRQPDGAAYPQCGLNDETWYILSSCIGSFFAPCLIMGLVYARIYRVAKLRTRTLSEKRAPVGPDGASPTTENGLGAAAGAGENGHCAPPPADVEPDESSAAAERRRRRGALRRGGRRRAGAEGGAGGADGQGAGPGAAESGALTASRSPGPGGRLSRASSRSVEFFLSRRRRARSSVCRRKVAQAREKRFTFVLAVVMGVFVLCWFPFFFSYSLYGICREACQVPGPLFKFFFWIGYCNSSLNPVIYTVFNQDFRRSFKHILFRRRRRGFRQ

[7] = target: Glutamate receptor ionotropic, NMDA 1 (Rattus norvegicus, UniProt P35439)
Note: assay procedure not described here.

Structure (SMILES)	AC50 [1]	AC50 (Estrogen receptor)	AC50 (Histamine H3 receptor)	AC50 (Adenosine receptor A2a)	AC50 (Vasopressin V1a receptor)	AC50 [2]	AC50 [3]	AC50 [4]	AC50 [5]	AC50 [6]	AC50 [7]
CC(C)(N)C(=O)N[C@H](Cc1c[nH]c2ccccc12)C(=O)N[C@H](Cc1c[nH]c2ccccc12)NC=O [MACIMORELIN]	> 30 µM	> 30 µM	> 30 µM	–	–	–	–	–	–	–	–
CCCCCOc1ccc(-c2cc(-c3ccc(C(=O)N[C@H]4C[C@@H](O)[C@@H](O)NC(=O)[C@@H]5[C@@H](O)[C@@H](C)CN5C(=O)[C@H]([C@H](O)CC(N)=O)NC(=O)[C@H]([C@H](O)[C@@H](O)c5ccc(O)c(OS(=O)(=O)O)c5)NC(=O)[C@@H]5C[C@@H](O)CN5C(=O)[C@H]([C@@H](C)O)NC4=O)cc3)no2)cc1 [MICAFUNGIN] (X1-[Orn(4R-OH,5R-OH)]T[Hyp][hTyr(3S-OH,4S-OH,3'-OSO3H)][Gln(3R-OH)][Pro(3S-OH,4S-Me)]; lactam 1-C)	> 30 µM	7.25 µM	> 30 µM	–	–	–	–	–	–	–	–
CN1CCC[C@H]1c1cccnc1 [NICOTINE]	> 30 µM	> 30 µM	> 30 µM	–	–	–	–	–	–	–	–
C#C[C@]1(O)CC[C@H]2[C@@H]3CCC4=C(CCC(=O)C4)[C@H]3CC[C@@]21C [NORETHYNODREL]	> 30 µM	–	> 30 µM	–	–	–	–	–	–	–	–
CNCCC=C1c2ccccc2CCc2ccccc21 [NORTRIPTYLINE]	–	–	–	> 30 µM	> 30 µM	> 30 µM	2.59 µM	> 30 µM	> 30 µM	–	–
COc1ccc(Cc2nccc3cc(OC)c(OC)cc23)cc1OC [PAPAVERINE]	–	–	–	> 30 µM	–	> 30 µM	5.6 µM	> 30 µM	> 30 µM	> 30 µM	> 30 µM
CN(C)CCC(c1ccccc1)c1ccccn1 (stereo not given) [PHENIRAMINE]	24.7 µM	–	> 30 µM	–	–	–	> 30 µM	–	–	–	–
CNC[C@H](O)c1cccc(O)c1 [PHENYLEPHRINE]	> 30 µM	–	> 30 µM	> 30 µM	> 10 µM	> 30 µM	> 30 µM	> 30 µM	> 30 µM	–	> 10 µM
CC(C)COc1ccc(CNC(=O)N(Cc2ccc(F)cc2)C2CCN(C)CC2)cc1 [PIMAVANSERIN]	4.6 µM	> 30 µM	28.7 µM	–	–	–	–	–	–	–	–
NC(=O)c1ncn([C@@H]2O[C@H](CO)[C@@H](O)[C@H]2O)n1 [RIBAVIRIN]	–	–	–	> 10 µM	–	> 10 µM	> 30 µM	> 10 µM	> 10 µM	> 10 µM	> 10 µM
CN(C)C(=O)c1nc(CNC(=O)CN)n(-c2ccc(Cl)cc2C(=O)c2ccccc2Cl)n1 [RILMAZAFONE]	> 30 µM	> 30 µM	> 30 µM	–	–	–	–	–	–	–	–
O=C(Nc1c(Cl)cncc1Cl)c1ccc(OC(F)F)c(OCC2CC2)c1 [ROFLUMILAST]	–	–	–	> 30 µM	> 30 µM	> 30 µM	> 30 µM	> 30 µM	> 30 µM	> 30 µM	> 30 µM
CCCCNc1ccc(C(=O)OCCN(C)C)cc1 [TETRACAINE]	> 30 µM	–	24.2 µM	> 30 µM	> 10 µM	> 10 µM	25.9 µM	> 30 µM	> 30 µM	> 10 µM	> 10 µM
CCCCCCCCCCCCCCCC(=O)OC/C=C(C)/C=C/C=C(C)/C=C/C1=C(C)CCCC1(C)C [VITAMIN A PALMITATE]	> 30 µM	–	> 30 µM	–	–	–	> 30 µM	–	–	–	–
